Target: T1, human full-length MKNK1 (Homo sapiens, UniProt Q9BUB5, T385D)
T1 construct: GST (N); purchased Carna Biosciences 02-145; host or cells: insect cells (baculovirus expression system)
Assay: MKNK1 kinase high ATP assay (TR-FRET)
Type: biochemical
Settings: TR-FRET, 2 mM ATP (high ATP), 15 min preincubation with enzyme, 30 min reaction at 22° C.; read-out: MKNK1 IC50
Experimental: MKNK1 Kinase High ATP Assay
MKNK1-inhibitory activity at high ATP of compounds of the present invention after their preincubation with MKNK1 was quantified employing the TR-FRET-based MKNK1 high ATP assay as described in the following paragraphs.
As substrate for the kinase reaction the biotinylated peptide biotin-Ahx-[…] (C-terminus in amide form) was used, which can be purchased e.g. from the company Biosyntan (Berlin-Buch, Germany).
For the assay 50 nL of a 100 fold concentrated solution of the test compound in DMSO was pipetted into a black low volume 384 well microtiter plate (Greiner Bio-One, Frickenhausen, Germany), 2 μL of a solution of MKNK1 in aqueous assay buffer [50 mM HEPES pH 7.5, 5 mM MgCl2, 1.0 mM dithiothreitol, 0.005% (v/v) Nonidet-P40 (Sigma)] was added and the mixture was incubated for 15 min at 22° C. to allow pre-binding of the test compounds to the enzyme before the start of the kinase reaction. Then the kinase reaction was started by the addition of 3 μL of a solution of adenosine-tri-phosphate (ATP, 3.3 mM=>final conc. in the 5 μL assay volume is 2 mM) and substrate (0.1 μM=>final conc. in the 5 μL assay volume is 0.06 μM) in assay buffer and the resulting mixture was incubated for a reaction time of 30 min at 22° C. The concentration of MKNK1 was adjusted depending of the activity of the enzyme lot and was chosen appropriate to have the assay in the linear range, typical concentrations were in the range of 0.003 μg/mL. The reaction was stopped by the addition of 5 μL of a solution of TR-FRET detection reagents (5 nM streptavidine-XL665 [Cisbio Bioassays, Codolet, France] and 1 nM anti-ribosomal protein S6 (pSer236)-antibody from Invitrogen [#44921G] and 1 nM LANCE EU-W1024 labeled ProteinG [Perkin-Elmer, product no. AD0071]) in an aqueous EDTA-solution (100 mM EDTA, 0.1% (w/v) bovine serum albumin in 50 mM HEPES pH 7.5).
The resulting mixture was incubated for 1 h at 22° C. to allow the formation of complex between the phosphorylated biotinylated peptide and the detection reagents. Subsequently the amount of phosphorylated substrate was evaluated by measurement of the resonance energy transfer from the Eu-chelate to the streptavidine-XL. Therefore, the fluorescence emissions at 620 nm and 665 nm after excitation at 350 nm were measured in a TR-FRET reader, e.g. a Rubystar (BMG Labtechnologies, Offenburg, Germany) or a Viewlux (Perkin-Elmer). The ratio of the emissions at 665 nm and at 622 nm was taken as the measure for the amount of phosphorylated substrate.

T1 sequence (Q9BUB5 1-424 isoform Q9BUB5-2 T344D): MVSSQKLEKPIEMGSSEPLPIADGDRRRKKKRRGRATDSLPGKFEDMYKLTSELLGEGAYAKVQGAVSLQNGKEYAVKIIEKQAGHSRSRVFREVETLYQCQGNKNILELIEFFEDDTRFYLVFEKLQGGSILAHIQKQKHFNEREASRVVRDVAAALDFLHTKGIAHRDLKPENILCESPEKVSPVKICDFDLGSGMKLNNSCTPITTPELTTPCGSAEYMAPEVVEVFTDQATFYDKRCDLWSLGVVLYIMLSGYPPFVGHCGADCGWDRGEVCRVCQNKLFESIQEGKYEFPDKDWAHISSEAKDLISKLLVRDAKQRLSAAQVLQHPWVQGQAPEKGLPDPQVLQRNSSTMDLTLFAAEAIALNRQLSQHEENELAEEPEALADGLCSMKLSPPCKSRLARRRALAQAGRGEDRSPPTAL

SMILES	IC50 [nM]
Cc1cc(Nc2ncnc3sc4c(c23)CC[C@H](C(=O)N(C)C)C4)c(=O)n2c1C(=O)NC21CCC1 [Example 20, (7S)—N,N-Dimethyl-4-[(8′-methyl-1′,5′-dioxo-1′,5′-dihydro-2′H-spiro[cyclobutane-1,3′-imidazo[1,5-a]pyridin]-6′-yl)amino]-5,6,7,8-tetrahydro[1]benzothieno[2,3-d]pyrimidine-7-carboxamide]	0.6
Cc1cc(Nc2ncnc3sc4c(c23)CC[C@H](C(=O)N2CCC2)C4)c(=O)n2c1C(=O)NC21CCC1 [Example 21, 6′-{[(7S)-7-(Azetidin-1-ylcarbonyl)-5,6,7,8-tetrahydro[1]benzothieno[2,3-d]pyrimidin-4-yl]amino}-8′-methyl-2′H-spiro[cyclobutane-1,3′-imidazo[1,5-a]pyridine]-1′,5′-dione]	0.6
Cc1cc(Nc2ncnc3sc4c(c23)CC[C@H](C(=O)N2CC(C#N)C2)C4)c(=O)n2c1C(=O)NC21CCC1 [Example 22, 1-({(7S)-4-[(8′-Methyl-1′,5′-dioxo-1′,5′-dihydro-2′H-spiro[cyclobutane-1,3′-imidazo[1,5-a]pyridin]-6′-yl)amino]-5,6,7,8-tetrahydro[1]benzothieno[2,3-d]pyrimidin-7-yl}carbonyl)azetidine-3-carbonitrile]	0.5
Cc1cc(Nc2ncnc3sc4c(c23)CC[C@H](C(=O)N2CC(N(C)C)C2)C4)c(=O)n2c1C(=O)NC21CCC1 [Example 23, 6′-{[(7S)-7-{[3-(Dimethylamino)azetidin-1-yl]carbonyl}-5,6,7,8-tetrahydro[1]benzothieno[2,3-d]pyrimidin-4-yl]amino}-8′-methyl-2′H-spiro[cyclobutane-1,3′-imidazo[1,5-a]pyridine]-1′,5′-dione]	0.4
Cc1cc(Nc2ncnc3sc4c(c23)CC[C@H](C(=O)N2CC[C@H](N(C)C)C2)C4)c(=O)n2c1C(=O)NC21CCC1 [Example 24, 6′-{[(7S)-7-{[(3S)-3-(Dimethylamino)pyrrolidin-1-yl]carbonyl}-5,6,7,8-tetrahydro[1]benzothieno[2,3-d]pyrimidin-4-yl]amino}-8′-methyl-2′H-spiro[cyclobutane-1,3′-imidazo[1,5-a]pyridine]-1′,5′-dione]	0.2
Cc1cc(Nc2ncnc3sc4c(c23)CC[C@H](C(=O)N2CCN(C)[C@H](C)C2)C4)c(=O)n2c1C(=O)NC21CCC1 [Example 25, 6′-{[(7S)-7-{[(3R)-3,4-Dimethylpiperazin-1-yl]carbonyl}-5,6,7,8-tetrahydro[1]benzothieno[2,3-d]pyrimidin-4-yl]amino}-8′-methyl-2′H-spiro[cyclobutane-1,3′-imidazo[1,5-a]pyridine]-1′,5′-dione]	0.4
Cc1cc(Nc2ncnc3sc4c(c23)CC[C@H](C(=O)N2C[C@H]3C[C@@H]2CO3)C4)c(=O)n2c1C(=O)NC21CCC1 [Example 26, 8′-Methyl-6′-({(7S)-7-[(1R,4R)-2-oxa-5-azabicyclo[2.2.1]hept-5-ylcarbonyl]-5,6,7,8-tetrahydro[1]benzothieno[2,3-d]pyrimidin-4-yl}amino)-2′H-spiro[cyclobutane-1,3′-imidazo[1,5-a]pyridine]-1′,5′-dione]	0.7
Cc1cc(Nc2ncnc3sc4c(c23)CC[C@H](C(=O)N(C)C)C4)c(=O)n2c1C(=O)NC2(C)C [Example 27, (7S)—N,N-Dimethyl-4-[(3,3,8-trimethyl-1,5-dioxo-1,2,3,5-tetrahydroimidazo[1,5-a]pyridin-6-yl)amino]-5,6,7,8-tetrahydro[1]benzothieno[2,3-d]pyrimidine-7-carboxamide]	2
Cc1cc(Nc2ncnc3sc4c(c23)CC[C@H](C(=O)N2CCC2)C4)c(=O)n2c1C(=O)NC2(C)C [Example 28, 6-{[(7S)-7-(Azetidin-1-ylcarbonyl)-5,6,7,8-tetrahydro[1]benzothieno[2,3-d]pyrimidin-4-yl]amino}-3,3,8-trimethyl-2,3-dihydroimidazo[1,5-a]pyridine-1,5-dione]	1
Cc1cc(Nc2ncnc3sc4c(c23)CC[C@H](C(=O)N2CC(C#N)C2)C4)c(=O)n2c1C(=O)NC2(C)C [Example 29, 1-({(7S)-4-[(3,3,8-Trimethyl-1,5-dioxo-1,2,3,5-tetrahydroimidazo[1,5-a]pyridin-6-yl)amino]-5,6,7,8-tetrahydro[1]benzothieno[2,3-d]pyrimidin-7-yl}carbonyl)azetidine-3-carbonitrile]	1
Cc1cc(Nc2ncnc3sc4c(c23)CC[C@H](C(=O)N2CC(N(C)C)C2)C4)c(=O)n2c1C(=O)NC2(C)C [Example 30, 6-{[(7S)-7-{[3-(Dimethylamino)azetidin-1-yl]carbonyl}-5,6,7,8-tetrahydro[1]benzothieno[2,3-d]pyrimidin-4-yl]amino}-3,3,8-trimethyl-2,3-dihydroimidazo[1,5-a]pyridine-1,5-dione]	1.3
Cc1cc(Nc2ncnc3sc4c(c23)CC[C@H](C(=O)N2CC[C@H](N(C)C)C2)C4)c(=O)n2c1C(=O)NC2(C)C [Example 31, 6-{[(7S)-7-{[(3S)-3-(Dimethylamino)pyrrolidin-1-yl]carbonyl}-5,6,7,8-tetrahydro[1]benzothieno[2,3-d]pyrimidin-4-yl]amino}-3,3,8-trimethyl-2,3-dihydroimidazo[1,5-a]pyridine-1,5-dione]	0.9
Cc1cc(Nc2ncnc3sc4c(c23)CC[C@H](C(=O)N2CCN(C)[C@H](C)C2)C4)c(=O)n2c1C(=O)NC2(C)C [Example 32, 6-{[(7S)-7-{[(3R)-3,4-Dimethylpiperazin-1-yl]carbonyl}-5,6,7,8-tetrahydro[1]benzothieno[2,3-d]pyrimidin-4-yl]amino}-3,3,8-trimethyl-2,3-dihydroimidazo[1,5-a]pyridine-1,5-dione]	0.5
Cc1cc(Nc2ncnc3sc4c(c23)CC[C@H](C(=O)N2C[C@H]3C[C@@H]2CO3)C4)c(=O)n2c1C(=O)NC2(C)C [Example 33, 3,3,8-Trimethyl-6-({(7S)-7-[(1R,4R)-2-oxa-5-azabicyclo[2.2.1]hept-5-ylcarbonyl]-5,6,7,8-tetrahydro[1]benzothieno[2,3-d]pyrimidin-4-yl}amino)-2,3-dihydroimidazo[1,5-a]pyridine-1,5-dione]	0.8
Cc1cc(Nc2ncnc3sc4c(c23)CC[C@H](C(=O)O)C4)c(=O)n2c1C(=O)NC21CCCC1 [Example 34, (7S)-4-[(8′-Methyl-1′,5′-dioxo-1′,5′-dihydro-2′H-spiro[cyclopentane-1,3′-imidazo[1,5-a]pyridin]-6′-yl)amino]-5,6,7,8-tetrahydro[1]benzothieno[2,3-d]pyrimidine-7-carboxylic acid]	4.7
Cc1cc(Nc2ncnc3sc4c(c23)CC[C@H](C(=O)N2CCN(C)[C@H](C)C2)C4)c(=O)n2c1C(=O)NC21CCCC1 [Example 35, 6′-{[(7S)-7-{[(3R)-3,4-Dimethylpiperazin-1-yl]carbonyl}-5,6,7,8-tetrahydro[1]benzothieno[2,3-d]pyrimidin-4-yl]amino}-8′-methyl-2′H-spiro[cyclopentane-1,3′-imidazo[1,5-a]pyridine]-1′,5′-dione]	0.4
Cc1cc(Nc2ncnc3sc4c(c23)CC[C@H](C(=O)N2C[C@H]3C[C@@H]2CO3)C4)c(=O)n2c1C(=O)NC21CCCC1 [Example 36, 8′-Methyl-6′-({(7S)-7-[(1R,4R)-2-oxa-5-azabicyclo[2.2.1]hept-5-ylcarbonyl]-5,6,7,8-tetrahydro[1]benzothieno[2,3-d]pyrimidin-4-yl}amino)-2′H-spiro[cyclopentane-1,3′-imidazo[1,5-a]pyridine]-1′,5′-dione]	1.3
Cc1cc(Nc2ncnc3sc4c(c23)CC[C@H](C(=O)N(C)C)C4)c(=O)n2c1C(=O)NC21CCCC1 [Example 37, (7S)—N,N-Dimethyl-4-[(8′-methyl-1′,5′-dioxo-1′,5′-dihydro-2′H-spiro[cyclopentane-1,3′-imidazo[1,5-a]pyridin]-6′-yl)amino]-5,6,7,8-tetrahydro[1]benzothieno[2,3-d]pyrimidine-7-carboxamide]	0.7
Cc1cc(Nc2ncnc3sc4c(c23)CC[C@H](C(=O)N2CCC2)C4)c(=O)n2c1C(=O)NC21CCCC1 [Example 38, 6′-{[(7S)-7-(Azetidin-1-ylcarbonyl)-5,6,7,8-tetrahydro[1]benzothieno[2,3-d]pyrimidin-4-yl]amino}-8′-methyl-2′H-spiro[cyclopentane-1,3′-imidazo[1,5-a]pyridine]-1′,5′-dione]	3.1
